# Results reported in patent publication US20120184728A1, “Compound Amycolose Derivative, Method for Producing the Same, and Use of the Same” (priority 2009, published 2012).
# Entries after “also recorded” stand apart in the source; their conditions may differ.
# Tested on: Human prostate stromal cells PrSC
# Experiment: Cell growth suppressive activity (MTT, Test Example 1)
# Assay type: cell-based
# Conditions: 0.024 to 100 μg/mL, 3 days culture, MTT absorbance at 570 nm, result in words
# Procedure: Human prostate stromal cells PrSC (product of Bio Whittaker) were added to DMEM (product of NISSUI PHARMACEUTICAL CO., LTD.) containing 10% by mass FBS (fetal bovine serum) (product of ICN Biomedicals) to prepare a cell suspension having a concentration of 5×10^4 cells/mL. The cell suspension was placed in a 96-well plate in an amount of 0.1 mL per well. Each of the amycolose derivatives (compounds 1, 2 and 3) was added to the wells at a final concentration of 0.024 μg/mL, 0.098 μg/mL, 0.391 μg/mL, 1.563 μg/mL, 6.25 μg/mL, 25 μg/mL or 100 μg/mL, followed by culturing in an incubator for 3 days at 37° C. and 5% CO2. Then, MTT (3-[4,5-dimethylthiazol-2-yl]-2,5-diphenyltetrazolium bromide) (product of Sigma Co.), which had been adjusted with a phosphate buffer to have a concentration of 5 mg/mL, was added to each well in an amount of 10 μL, followed by culturing in an incubator for 4 hours at 37° C. and 5% CO2. Subsequently, 10 μL of 20% by mass SDS (sodium dodecylsulphate) prepared with 10 mM hydrochloric acid was added to each well, and the plate was left to stand still overnight at 37° C. to dissolve formazan formed from MTT. Thereafter, the plate was measured for absorbance at 570 nm with an absorptiometer (hereinafter may be referred to as “amycolose derivative-added sample's absorbance”). Regarding as 100% the absorbance measured when no amycolose derivative was added (hereinafter may be referred to as “control absorbance”), the cell growth rate in each of the amycolose derivatives (compounds 1, 2 and 3) at the above concentrations was calculated using the following equation (1).
# Cell growth rate (%)=amycolose derivative-added sample's absorbance/control absorbance×100 Equation (1)
row,SMILES,"cell growth suppressive activity (cell growth rate, FIG. 5)"
1,CO[C@@H]1C[C@@](O)([C@H](C)NC(=O)c2[nH]c(C)c(Cl)c2Cl)[C@H](O)[C@@H](C)O1 [compound 3],exhibit cell growth suppressive activity
2,CO[C@H]1C[C@@](O)([C@H](C)NC(=O)c2[nH]c(C)c(Cl)c2Cl)[C@H](O)[C@@H](C)O1 [compound 2],exhibit cell growth suppressive activity
3,Cc1[nH]c(C(=O)N[C@@H](C)[C@]2(O)CC(O)O[C@H](C)[C@H]2O)c(Cl)c1Cl (stereo partly drawn) [compound 1],exhibit cell growth suppressive activity; also recorded: remarkable cell growth suppressive activity
